In the supplement of paper PMC11451515:

Assays:
Conditions in all cases: 48 h
P12-Ichikawa [1] = experiment: AUC of viability dose-response curve (% viability x log10 dose units); higher = less sensitive
Outline: (§1)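 Medium-adapted leukemia cells in 1536-well plates, at 500 or 1000 cells/well, were incubated for 48 h at 37°C with library compounds in DMSO at 11 threefold doses from 47 μM to 0.79 nM. CellTiter-Glo One luminescence normalised per plate to DMSO and cell-free wells was fitted with a four-parameter log-logistic model over log10 doses. Area under the curve was integrated from this fit by trapezoidal rule, with curves beyond full viability scaled and failed quality-control curves removed.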

NOMO1 [2] = experiment: as above
Outline: as §1

SEM cells [3] = experiment: as above
Outline: as §1

SEM cells [4] = experiment: cell viability relative to DMSO control; higher = less cytotoxic
Outline: (§2)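 Library compounds in DMSO were pin-dosed in an 11-point threefold series (47 μM to 0.79 nM) onto leukemia cells in 1536-well plates (5 μl). Plates held 500 cells/well of NOMO1 or SEM or 1000 cells/well of P12-Ichikawa, each adapted for at least four passages in each medium. Luminescence was read with CellTiter-Glo One after 48 h at 37°C. Viability means the per-plate percentage relative to DMSO wells, using cell-free wells as background.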

P12-Ichikawa [5] = experiment: as above
Outline: as §2

NOMO1 [6] = experiment: as above
Outline: as §2

O=C(O)COCCN1CCN(C(c2ccccc2)c2ccc(Cl)cc2)CC1 (stereo unspecified)
AUC of viability dose-response curve
Conditions | NOMO1 [2] | P12-Ichikawa [1] | SEM cells [3]
HPLM + 10% dialyzed FBS | 463 | 461 | 465
RPMI 5 mM glucose + 10% FBS | 459 | 461 | 453
RPMI 5 mM glucose + 10% dialyzed FBS | 451 | 455 | 469

cell viability [%], SEM cells [4]
Conditions | HPLM + 10% dialyzed FBS | RPMI 5 mM glucose + 10% FBS
0.000781 µM | 126 | 117
0.00234 µM | 125 | 118
0.00702 µM | 117 | 113
0.0211 µM | 130 | 108
0.0632 µM | 140 | 116
0.19 µM | 132 | 95.4
0.569 µM | 128 | 119
1.71 µM | 123 | 91
5.12 µM | 111 | 113
15.4 µM | 119 | 112
46.1 µM | 122 | 102

CC(/C=C1\SC(=S)N(CC(=O)O)C1=O)=C\c1ccccc1
AUC of viability dose-response curve
Conditions | NOMO1 [2] | P12-Ichikawa [1] | SEM cells [3]
HPLM + 10% dialyzed FBS | 452 | 461 | 471
RPMI 5 mM glucose + 10% FBS | 454 | 440 | 420
RPMI 5 mM glucose + 10% dialyzed FBS | 472 | 457 | 476

CC(C)N(CC[C@H](c1ccccc1)c1cc(CO)ccc1O)C(C)C
AUC of viability dose-response curve
Conditions | NOMO1 [2] | P12-Ichikawa [1] | SEM cells [3]
HPLM + 10% dialyzed FBS | 455 | 464 | 462
RPMI 5 mM glucose + 10% FBS | 468 | 461 | 473
RPMI 5 mM glucose + 10% dialyzed FBS | 462 | 466 | 461

cell viability [%], HPLM + 10% dialyzed FBS
Conditions | P12-Ichikawa [5] | SEM cells [4]
0.000781 µM | 127 | 106
0.00234 µM | 123 | 118
0.00702 µM | 120 | 125
0.0211 µM | 126 | 141
0.0632 µM | 139 | 131
0.19 µM | 137 | 139
0.569 µM | 140 | 129
1.71 µM | 138 | 134
5.12 µM | 129 | 151
15.4 µM | 128 | 135
46.1 µM | 135 | 119

Cc1cc2c(cc1C1(c3ccc(C(=O)O)cn3)CC1)C(C)(C)CCC2(C)C
AUC of viability dose-response curve
Conditions | NOMO1 [2] | P12-Ichikawa [1] | SEM cells [3]
HPLM + 10% dialyzed FBS | 371 | 433 | 458
RPMI 5 mM glucose + 10% FBS | 429 | 435 | 418
RPMI 5 mM glucose + 10% dialyzed FBS | 417 | 429 | 407

COc1cc(OC)c(OC)cc1C=O
AUC of viability dose-response curve
Conditions | NOMO1 [2] | P12-Ichikawa [1] | SEM cells [3]
HPLM + 10% dialyzed FBS | 467 | 455 | 439
RPMI 5 mM glucose + 10% FBS | 474 | 440 | 450
RPMI 5 mM glucose + 10% dialyzed FBS | 469 | 429 | 460

cell viability [%], SEM cells [4]
Conditions | HPLM + 10% dialyzed FBS | RPMI 5 mM glucose + 10% dialyzed FBS
0.000781 µM | 98 | 113
0.00234 µM | 111 | 96.5
0.00702 µM | 111 | 130
0.0211 µM | 109 | 144
0.0632 µM | 108 | 148
0.19 µM | 113 | 146
0.569 µM | 88.7 | 94
1.71 µM | 58.6 | 54
5.12 µM | 122 | 126
15.4 µM | 133 | 162
46.1 µM | 139 | 130

CCCCCCOC(=O)/N=C(/N)c1ccc(NCc2nc3cc(C(=O)N(CCC(=O)OCC)c4ccccn4)ccc3n2C)cc1
AUC of viability dose-response curve
Conditions | NOMO1 [2] | P12-Ichikawa [1] | SEM cells [3]
HPLM + 10% dialyzed FBS | 443 | 475 | 448
RPMI 5 mM glucose + 10% FBS | 449 | 465 | 468
RPMI 5 mM glucose + 10% dialyzed FBS | 449 | 467 | 475

cell viability [%], HPLM + 10% dialyzed FBS
Conditions | P12-Ichikawa [5] | SEM cells [4]
0.000781 µM | 114 | 112
0.00234 µM | 130 | 113
0.00702 µM | 122 | 124
0.0211 µM | 131 | 125
0.0632 µM | 109 | 123
0.19 µM | 138 | 125
0.569 µM | 138 | 129
1.71 µM | 125 | 134
5.12 µM | 145 | 145
15.4 µM | 121 | 137
46.1 µM | 106 | 125

CC(C)(O)Cn1c(NC(=O)c2ccc(-c3cn[nH]c3)s2)nc2cc(CN3CCOCC3)ccc21
AUC of viability dose-response curve
Conditions | NOMO1 [2] | P12-Ichikawa [1] | SEM cells [3]
HPLM + 10% dialyzed FBS | 352 | 365 | 226
RPMI 5 mM glucose + 10% FBS | 369 | 364 | 206
RPMI 5 mM glucose + 10% dialyzed FBS | 368 | 364 | 207

CCC(=C/[C@H](C)C/C=C/C(C)=C/[C@@H](C)C(=O)[C@@H](C)[C@H](O)[C@@H](C)C/C(C)=C/C(=O)O)/C=C/[C@@H]1OC(=O)C=C[C@@H]1C
AUC of viability dose-response curve
Conditions | HPLM + 10% dialyzed FBS | RPMI 5 mM glucose + 10% FBS | RPMI 5 mM glucose + 10% dialyzed FBS
NOMO1 [2] | 351 | 365 | 355
P12-Ichikawa [1] | 361 | 355 | 359

cell viability [%]
Conditions | NOMO1 [6] | P12-Ichikawa [5] | SEM cells [4]
HPLM + 10% dialyzed FBS, 0.000781 µM | 118 | 110 | 59.9
HPLM + 10% dialyzed FBS, 0.00234 µM | 115 | 114 | 88.8
HPLM + 10% dialyzed FBS, 0.00702 µM | 109 | 116 | 77.7
HPLM + 10% dialyzed FBS, 0.0211 µM | 107 | 117 | 79.9
HPLM + 10% dialyzed FBS, 0.0632 µM | 118 | 118 | 89.2
HPLM + 10% dialyzed FBS, 0.19 µM | 123 | 115 | 75.7
HPLM + 10% dialyzed FBS, 0.569 µM | 125 | 129 | 62.4
HPLM + 10% dialyzed FBS, 1.71 µM | 83.8 | 109 | 20.6
HPLM + 10% dialyzed FBS, 5.12 µM | 4.07 | 6.55 | 5.63
HPLM + 10% dialyzed FBS, 15.4 µM | 2.4 | 4.69 | 5.09
HPLM + 10% dialyzed FBS, 46.1 µM | 13.2 | 7.83 | 7.74
RPMI 5 mM glucose + 10% FBS, 0.000781 µM | 104 | 106 | 83
RPMI 5 mM glucose + 10% FBS, 0.00234 µM | 101 | 119 | 96.4
RPMI 5 mM glucose + 10% FBS, 0.00702 µM | 110 | 111 | 93.2
RPMI 5 mM glucose + 10% FBS, 0.0211 µM | 99.2 | 127 | 95.3
RPMI 5 mM glucose + 10% FBS, 0.0632 µM | 114 | 121 | 106
RPMI 5 mM glucose + 10% FBS, 0.19 µM | 114 | 118 | 70.4
RPMI 5 mM glucose + 10% FBS, 0.569 µM | 109 | 114 | 45.5
RPMI 5 mM glucose + 10% FBS, 1.71 µM | 110 | 96.1 | 13
RPMI 5 mM glucose + 10% FBS, 5.12 µM | 3.02 | 5.34 | 6.23
RPMI 5 mM glucose + 10% FBS, 15.4 µM | 1.72 | 3.16 | 5.5
RPMI 5 mM glucose + 10% FBS, 46.1 µM | 14.7 | 8.25 | 10.9
RPMI 5 mM glucose + 10% dialyzed FBS, 0.000781 µM | 99.7 | 99.9 | 84
RPMI 5 mM glucose + 10% dialyzed FBS, 0.00234 µM | 108 | 107 | 86
RPMI 5 mM glucose + 10% dialyzed FBS, 0.00702 µM | 113 | 109 | 95.4
RPMI 5 mM glucose + 10% dialyzed FBS, 0.0211 µM | 107 | 115 | 91.1
RPMI 5 mM glucose + 10% dialyzed FBS, 0.0632 µM | 122 | 107 | 82.9
RPMI 5 mM glucose + 10% dialyzed FBS, 0.19 µM | 120 | 111 | 77.7
RPMI 5 mM glucose + 10% dialyzed FBS, 0.569 µM | 120 | 108 | 52
RPMI 5 mM glucose + 10% dialyzed FBS, 1.71 µM | 90.2 | 91.1 | 18.8
RPMI 5 mM glucose + 10% dialyzed FBS, 5.12 µM | 3.22 | 5.62 | 7.36
RPMI 5 mM glucose + 10% dialyzed FBS, 15.4 µM | 2.11 | 4.96 | 6.69
RPMI 5 mM glucose + 10% dialyzed FBS, 46.1 µM | 14.7 | 13.8 | 8.55
